Our source for the Kd values is patent publication US11312682B2, “Selective inhibitors of carbonic anhydrase” (VILNIUS UNIVERSITY, priority 2015, dated 2022).

For experiment [1], the target named is human recombinant CA II (Homo sapiens, UniProt P00918). The experiment in a line: Fluorescent thermal shift assay (FTSA), binding to CA II. The conditions noted are these: read-out: Dissociation constants, CA II.
Experiment [2] deals with human recombinant CA VA (Homo sapiens, UniProt P35218). Briefly: Fluorescent thermal shift assay (FTSA), binding to CA VA. The conditions noted are these: Table 1; FTSA at 37° C. and pH 7.0; read-out: Dissociation constants, CA VA.
Experiment [3] addresses human recombinant CA IX (Homo sapiens, UniProt Q16790). Briefly: Fluorescent thermal shift assay (FTSA), binding to CA IX. To be noted: read-out: Dissociation constants, CA IX.
For experiment [4], the target named is human recombinant CA XII (Homo sapiens, UniProt O43570). The experiment in a line: Fluorescent thermal shift assay (FTSA), binding to CA XII. The conditions noted are these: read-out: Dissociation constants, CA XII.
Experiment [5] addresses human recombinant CA XIII (Homo sapiens, UniProt Q8N1Q1). The experiment in a line: Fluorescent thermal shift assay (FTSA), binding to CA XIII. The conditions noted are these: Table 1; FTSA at 37° C. and pH 7.0; read-out: Dissociation constants, CA XIII.
For experiment [6], the target named is human recombinant CA XIV (Homo sapiens, UniProt Q9ULX7). Briefly: Fluorescent thermal shift assay (FTSA), binding to CA XIV. The conditions noted are these: read-out: Dissociation constants, CA XIV.
Experiment [7] has as its target human recombinant CA I (Homo sapiens, UniProt P00915). The experiment in a line: Fluorescent thermal shift assay (FTSA), binding to CA I. To be noted: Table 3; FTSA at 37° C., pH 7.0; read-out: Dissociation constants, CA I.
Experiment [8] deals with human recombinant CA III (Homo sapiens, UniProt P07451). The experiment in a line: Fluorescent thermal shift assay (FTSA), binding to CA III. To be noted: Table 1; FTSA at 37° C. and pH 7.0; read-out: Dissociation constants, CA III.
Experiment [9] addresses human recombinant CA IV (Homo sapiens, UniProt P22748). Briefly: Fluorescent thermal shift assay (FTSA), binding to CA IV. To be noted: Table 1; FTSA at 37° C. and pH 7.0; read-out: Dissociation constants, CA IV.
Experiment [10] deals with human recombinant CA VI (Homo sapiens, UniProt P23280). Briefly: Fluorescent thermal shift assay (FTSA), binding to CA VI. The conditions noted are these: Table 1; FTSA at 37° C. and pH 7.0; read-out: Dissociation constants, CA VI.
The target in experiment [11] is human recombinant CA VB (Homo sapiens, UniProt Q9Y2D0). Briefly: Fluorescent thermal shift assay (FTSA), binding to CA VB. To be noted: Table 1; FTSA at 37° C. and pH 7.0; read-out: Dissociation constants, CA VB.
Experiment [12] has as its target human recombinant CA VII (Homo sapiens, UniProt P43166). Briefly: Fluorescent thermal shift assay (FTSA), binding to CA VII. To be noted: Table 1; FTSA at 37° C. and pH 7.0; read-out: Dissociation constants, CA VII.
Setting [13] is: Table 1, FTSA at 37° C. and pH 7.0.
Setting [14] is: Table 3, FTSA at 37° C., pH 7.0.

Like-named read-outs stand apart in the source and are kept apart here.

Chain of human recombinant CA I (P00915 whole entry): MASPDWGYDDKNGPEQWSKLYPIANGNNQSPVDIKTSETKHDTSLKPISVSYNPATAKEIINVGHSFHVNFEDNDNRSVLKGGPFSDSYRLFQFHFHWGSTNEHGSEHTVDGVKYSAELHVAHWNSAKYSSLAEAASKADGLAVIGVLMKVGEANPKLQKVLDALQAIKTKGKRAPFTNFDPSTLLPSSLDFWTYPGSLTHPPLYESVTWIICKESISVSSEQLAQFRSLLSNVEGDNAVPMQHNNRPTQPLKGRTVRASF
Chain of human recombinant CA XIII (Q8N1Q1 whole entry): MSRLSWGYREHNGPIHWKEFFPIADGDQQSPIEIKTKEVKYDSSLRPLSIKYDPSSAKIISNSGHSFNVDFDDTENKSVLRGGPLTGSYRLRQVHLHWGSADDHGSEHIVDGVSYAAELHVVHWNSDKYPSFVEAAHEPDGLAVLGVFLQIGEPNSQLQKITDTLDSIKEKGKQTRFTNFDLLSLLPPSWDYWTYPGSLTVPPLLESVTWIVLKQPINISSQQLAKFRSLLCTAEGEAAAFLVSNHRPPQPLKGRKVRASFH
Chain of human recombinant CA VA (P35218 39-305): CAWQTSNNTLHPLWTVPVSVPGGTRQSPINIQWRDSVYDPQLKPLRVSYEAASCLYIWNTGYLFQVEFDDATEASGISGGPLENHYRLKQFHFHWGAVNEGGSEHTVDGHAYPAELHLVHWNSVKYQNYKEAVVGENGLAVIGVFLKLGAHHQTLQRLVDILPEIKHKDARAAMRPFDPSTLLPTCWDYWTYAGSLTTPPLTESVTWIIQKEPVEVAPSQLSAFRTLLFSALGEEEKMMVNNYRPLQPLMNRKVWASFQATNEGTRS
Chain of human recombinant CA XII (O43570 25-354): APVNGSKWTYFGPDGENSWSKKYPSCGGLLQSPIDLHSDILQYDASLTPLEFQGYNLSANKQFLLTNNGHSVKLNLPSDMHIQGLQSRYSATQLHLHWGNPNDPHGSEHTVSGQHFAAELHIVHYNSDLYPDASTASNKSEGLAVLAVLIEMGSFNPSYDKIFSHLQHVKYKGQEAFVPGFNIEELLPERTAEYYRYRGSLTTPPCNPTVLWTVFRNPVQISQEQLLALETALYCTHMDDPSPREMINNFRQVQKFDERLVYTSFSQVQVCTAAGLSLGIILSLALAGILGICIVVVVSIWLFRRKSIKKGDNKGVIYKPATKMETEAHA
Chain of human recombinant CA VII (P43166 whole entry): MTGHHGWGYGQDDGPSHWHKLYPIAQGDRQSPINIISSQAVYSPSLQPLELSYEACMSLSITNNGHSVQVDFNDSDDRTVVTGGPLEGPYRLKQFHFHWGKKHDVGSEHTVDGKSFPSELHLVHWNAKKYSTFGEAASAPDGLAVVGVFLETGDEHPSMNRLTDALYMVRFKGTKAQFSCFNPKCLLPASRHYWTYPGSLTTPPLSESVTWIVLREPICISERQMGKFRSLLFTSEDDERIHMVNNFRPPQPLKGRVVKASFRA
Chain of human recombinant CA XIV (Q9ULX7 16-337): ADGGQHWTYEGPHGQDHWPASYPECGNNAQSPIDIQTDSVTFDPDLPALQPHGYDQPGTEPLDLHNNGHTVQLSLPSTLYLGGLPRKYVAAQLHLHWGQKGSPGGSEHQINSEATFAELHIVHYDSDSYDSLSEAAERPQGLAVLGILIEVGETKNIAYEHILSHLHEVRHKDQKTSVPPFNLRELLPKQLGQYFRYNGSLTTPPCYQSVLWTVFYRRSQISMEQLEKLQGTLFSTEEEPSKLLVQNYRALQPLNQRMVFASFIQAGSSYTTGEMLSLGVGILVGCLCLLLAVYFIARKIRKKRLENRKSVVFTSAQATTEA
Chain of human recombinant CA VI (P23280 18-308): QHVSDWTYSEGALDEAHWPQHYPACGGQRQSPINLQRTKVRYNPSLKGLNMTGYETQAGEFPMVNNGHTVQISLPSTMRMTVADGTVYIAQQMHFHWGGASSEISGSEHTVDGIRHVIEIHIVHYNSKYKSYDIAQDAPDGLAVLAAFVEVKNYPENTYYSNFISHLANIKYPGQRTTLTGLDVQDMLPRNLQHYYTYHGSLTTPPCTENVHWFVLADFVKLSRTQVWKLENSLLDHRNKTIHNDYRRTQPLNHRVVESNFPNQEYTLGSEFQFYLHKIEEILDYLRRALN
Chain of human recombinant CA IV (P22748 19-284): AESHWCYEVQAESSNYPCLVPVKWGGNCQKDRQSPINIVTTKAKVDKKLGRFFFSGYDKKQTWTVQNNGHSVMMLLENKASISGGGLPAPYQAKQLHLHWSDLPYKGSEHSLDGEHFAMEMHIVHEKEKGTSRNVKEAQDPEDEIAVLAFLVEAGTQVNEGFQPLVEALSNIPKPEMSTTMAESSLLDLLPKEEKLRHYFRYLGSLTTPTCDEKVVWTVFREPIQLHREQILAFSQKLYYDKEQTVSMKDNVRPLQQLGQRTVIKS
Chain of human recombinant CA III (P07451 whole entry): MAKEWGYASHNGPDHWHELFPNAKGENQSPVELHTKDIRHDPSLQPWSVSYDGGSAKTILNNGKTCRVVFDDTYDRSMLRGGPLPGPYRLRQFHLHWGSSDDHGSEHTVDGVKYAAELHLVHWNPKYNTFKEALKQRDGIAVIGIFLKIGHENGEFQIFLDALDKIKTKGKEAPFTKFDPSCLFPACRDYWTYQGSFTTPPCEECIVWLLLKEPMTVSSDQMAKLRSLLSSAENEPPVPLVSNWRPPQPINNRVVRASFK
Chain of human recombinant CA VB (Q9Y2D0 34-317): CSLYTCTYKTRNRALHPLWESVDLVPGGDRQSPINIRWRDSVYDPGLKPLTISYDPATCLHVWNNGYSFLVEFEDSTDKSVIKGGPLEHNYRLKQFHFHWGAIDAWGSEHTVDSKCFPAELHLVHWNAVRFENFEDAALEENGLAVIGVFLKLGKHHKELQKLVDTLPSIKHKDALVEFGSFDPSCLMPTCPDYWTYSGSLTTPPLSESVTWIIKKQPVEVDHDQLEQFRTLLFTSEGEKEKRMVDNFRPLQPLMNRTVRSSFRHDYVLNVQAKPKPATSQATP

Regarding `Cc1cc2ncn(CC(=O)c3ccc(Cl)c(S(N)(=O)=O)c3)c2cc1C` [Compound 20, 2-chloro-5-[2-(5,6-dimethylbenzimidazol-1-yl)acetyl]benzenesulfonamide], the Kd came to 600 nM in experiment [1] (setting [13]); 0.8 nM in experiment [2]; 600 nM in [3] (setting [13]); 3100 nM in experiment [4] (setting [13]); 800 nM in experiment [5]; 50 nM in [6] (setting [13]).

Take `COC(=O)c1cc(S(N)(=O)=O)c(Cl)cc1SCCc1ccccc1` [Compound 14d, methyl 4-chloro-2-phenethylsulfanyl-5-sulfamoyl-benzoate]: the Kd worked out at 13 µM in experiment [7], 170 nM in experiment [1] (setting [14]), 13 nM in experiment [3] (setting [14]) and 53 nM in experiment [4] (setting [14]).

`NS(=O)(=O)c1cc(C(=O)Cn2cnc3ccccc32)ccc1Cl` [Compound 19, 5-[2-(benzimidazol-1-yl)acetyl]-2-chloro-benzenesulfonamide]: the Kd in experiment [8] is above 200 µM; in experiment [9] it was 600 nM; in experiment [2], 0.3 nM; in [10] it was 700 nM; in experiment [5], 800 nM; in [6] (setting [13]) it was 50 nM.

As to `COC(=O)c1cc(S(N)(=O)=O)c(Cl)cc1SC1CCCCC1` [Compound 14b, methyl 4-chloro-2-cyclohexylsulfanyl-5-sulfamoyl-benzoate], the Kd is 17 µM in experiment [7], 250 nM in experiment [1] (setting [14]), 0.3 nM in [3] (setting [14]) and 33 nM in experiment [4] (setting [14]).

In the case of “2,4-dichloro-5-[2-(5-methoxybenzimidazol-1-yl)acetyl]benzenesulfonamide and 2,4-dichloro-5-[2-(6-methoxybenzimidazol-1-yl)acetyl]benzenesulfonamide [Compound 31]”, the Kd was found to be 40 µM in experiment [8]; 1400 nM in experiment [9]; 6 nM in experiment [2]; 700 nM in experiment [11]; 1800 nM in [10]; 300 nM in experiment [12]. Also, the Kd worked out at 400 nM in [3] (setting [13]), 2800 nM in experiment [4] (setting [13]), 600 nM in experiment [5] and 40 nM in [6] (setting [13]).

Turning to `COC(=O)c1cc(S(N)(=O)=O)c(Cl)cc1Sc1ccccc1` [Compound 14a, methyl 4-chloro-2-phenylsulfanyl-5-sulfamoyl-benzoate], the Kd was determined as 10 µM in [7] and 6.7 nM in experiment [4] (setting [14]).

For `Cc1cc2ncn(CC(=O)c3cc(S(N)(=O)=O)c(Cl)cc3Cl)c2cc1C` [Compound 30, 2,4-dichloro-5-[2-(5,6-dimethylbenzimidazol-1-yl)acetyl]benzenesulfonamide], the Kd in [1] (setting [13]) was 500 nM; in [2] it was 5 nM; in experiment [12], 700 nM; in [6] (setting [13]), 300 nM.

On to `NS(=O)(=O)c1cc(C(=O)Cn2cnc3ccccc32)c(Cl)cc1Cl` [Compound 29, 5-[2-(benzimidazol-1-yl)acetyl]-2,4-dichloro-benzenesulfonamide], for which the Kd in [2] came to 2 nM; in experiment [12] it was 100 nM; in [3] (setting [13]), 400 nM; in experiment [5], 700 nM; in [6] (setting [13]), 20 nM.

In the case of `COC(=O)c1cc(S(N)(=O)=O)c(Cl)cc1S(=O)(=O)c1ccccc1` [Compound 42a, methyl 2-(benzenesulfonyl)-4-chloro-5-sulfamoyl-benzoate], the Kd in [6] (Table 2, FTSA at 37° C., pH 7.0) was found to be 0.03 nM.

For `COC(=O)c1cc(S(N)(=O)=O)c(Cl)cc1SCc1ccccc1` [Compound 14c, methyl 2-benzylsulfanyl-4-chloro-5-sulfamoyl-benzoate], the Kd in experiment [7] is 6.9 µM; in [1] (setting [14]), 110 nM; in [3] (setting [14]), 2.9 nM; in [4] (setting [14]), 22 nM.
